In ChEMBL document CHEMBL3585331, “Recent advances for FLAP inhibitors” (Bioorg Med Chem Lett, 2015):

Legend:
Blood [1] = assay: Inhibition of LTB4 production in human whole blood; assay type: functional, tissue-based
Blood [2] = assay: Inhibition of A23187-induced LTB4 production in human whole blood pre-incubated for 15 mins before A23187 stimulation for another 15 mins; assay type: functional, tissue-based
[3] = target: T1, Arachidonate 5-lipoxygenase-activating protein (Homo sapiens, UniProt P20292); assay: Binding affinity to FLAP (unknown origin)
T1 sequence (P20292 whole entry): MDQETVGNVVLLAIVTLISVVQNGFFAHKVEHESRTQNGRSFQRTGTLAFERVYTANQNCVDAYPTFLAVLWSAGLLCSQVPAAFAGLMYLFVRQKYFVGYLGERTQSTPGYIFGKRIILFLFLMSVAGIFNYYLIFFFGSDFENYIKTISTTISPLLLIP

Row | IC50 (Blood [1]) | IC50 (Blood [2]) | IC50 [3] | Compound
1 | 120 nM | – | – | CC(C)Cc1ccc(C(C)c2nc3ccccc3n2Cc2ccccc2Cl)cc1 (stereo unspecified)
2 | 62 nM | – | – | CC(C)(O)CNC(=O)c1ccc(C2(c3ccc(-c4cnc(N)cn4)cc3)CCCO2)cn1 (stereo unspecified)
3 | – | 66 nM | – | Nc1cnc(-c2ccc(C3CCC3)c(Oc3ncccn3)c2F)cn1
4 | 12 nM | – | – | CC(C)C(C)(c1ccc(-c2ccc(C(C)(C)O)nn2)cc1)c1ccc(OCc2ccccn2)cn1 (stereo unspecified)
5 | 500 nM | – | 36 nM | CC(C)(C)Sc1c(CC(C)(C)C(=O)O)n(Cc2ccc(Cl)cc2)c2ccc(OCc3ccc4ccccc4n3)cc12 [QUIFLAPON]
